From ChEMBL document CHEMBL3808348, “Rational Design, Synthesis, and Biological Evaluation of 7-Azaindole Derivatives as Potent Focused Multi-Targeted Kinase Inhibitors” (J Med Chem, 2016)

Key:
HepG2 = experiment: Antiproliferative activity against human HepG2 cells after 72 hrs by MTT assay; type: functional, cell-based; conditions: HepG2, 72 h
[1] = molecular target: Epidermal growth factor receptor (Homo sapiens, UniProt P00533); experiment: Inhibition of GST-tagged human recombinant EGFR (668 to1210 residues) expressed in baculovirus using Fluorescein-Poly GT as substrate at 100 nM
Sequence of Epidermal growth factor receptor (P00533 whole entry, the tested form may be a part): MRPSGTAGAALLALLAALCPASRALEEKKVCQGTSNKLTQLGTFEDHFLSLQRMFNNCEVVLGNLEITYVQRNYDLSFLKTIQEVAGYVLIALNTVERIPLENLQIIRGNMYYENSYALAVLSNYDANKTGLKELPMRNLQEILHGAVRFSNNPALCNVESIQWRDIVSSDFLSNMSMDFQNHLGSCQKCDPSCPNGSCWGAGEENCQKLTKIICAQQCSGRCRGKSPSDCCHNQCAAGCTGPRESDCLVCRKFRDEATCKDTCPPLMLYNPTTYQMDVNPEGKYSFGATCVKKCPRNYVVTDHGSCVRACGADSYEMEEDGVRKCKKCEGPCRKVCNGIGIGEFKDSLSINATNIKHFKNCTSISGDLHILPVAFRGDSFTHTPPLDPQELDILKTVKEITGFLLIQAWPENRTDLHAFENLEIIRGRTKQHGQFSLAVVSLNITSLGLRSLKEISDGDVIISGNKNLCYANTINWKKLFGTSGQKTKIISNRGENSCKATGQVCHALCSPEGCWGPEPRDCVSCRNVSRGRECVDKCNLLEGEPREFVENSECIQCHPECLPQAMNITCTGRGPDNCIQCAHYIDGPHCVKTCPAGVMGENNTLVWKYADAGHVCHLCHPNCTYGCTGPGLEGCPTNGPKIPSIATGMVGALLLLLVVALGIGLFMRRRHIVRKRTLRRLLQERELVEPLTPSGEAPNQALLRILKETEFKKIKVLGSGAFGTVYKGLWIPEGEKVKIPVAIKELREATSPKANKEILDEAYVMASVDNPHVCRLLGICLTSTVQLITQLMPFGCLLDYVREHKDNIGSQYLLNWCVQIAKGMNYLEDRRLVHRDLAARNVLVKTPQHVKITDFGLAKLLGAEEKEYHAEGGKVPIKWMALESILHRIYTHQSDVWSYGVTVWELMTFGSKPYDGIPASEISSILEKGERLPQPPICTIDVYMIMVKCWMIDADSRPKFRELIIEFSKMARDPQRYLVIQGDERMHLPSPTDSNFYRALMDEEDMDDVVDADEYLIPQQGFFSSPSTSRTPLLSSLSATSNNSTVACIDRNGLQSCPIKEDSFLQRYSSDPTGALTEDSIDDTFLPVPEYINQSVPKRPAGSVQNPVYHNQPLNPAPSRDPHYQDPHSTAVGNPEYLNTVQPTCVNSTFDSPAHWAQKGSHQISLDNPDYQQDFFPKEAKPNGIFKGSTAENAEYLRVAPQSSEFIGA

[2] = molecular target: Proto-oncogene tyrosine-protein kinase Src (Homo sapiens, UniProt P12931); experiment: Inhibition of full length His-tagged human recombinant cSRC expressed in baculovirus using Fluorescein-Poly GT as substrate at 100 nM
Sequence of Proto-oncogene tyrosine-protein kinase Src (P12931 2-536 limits assumed): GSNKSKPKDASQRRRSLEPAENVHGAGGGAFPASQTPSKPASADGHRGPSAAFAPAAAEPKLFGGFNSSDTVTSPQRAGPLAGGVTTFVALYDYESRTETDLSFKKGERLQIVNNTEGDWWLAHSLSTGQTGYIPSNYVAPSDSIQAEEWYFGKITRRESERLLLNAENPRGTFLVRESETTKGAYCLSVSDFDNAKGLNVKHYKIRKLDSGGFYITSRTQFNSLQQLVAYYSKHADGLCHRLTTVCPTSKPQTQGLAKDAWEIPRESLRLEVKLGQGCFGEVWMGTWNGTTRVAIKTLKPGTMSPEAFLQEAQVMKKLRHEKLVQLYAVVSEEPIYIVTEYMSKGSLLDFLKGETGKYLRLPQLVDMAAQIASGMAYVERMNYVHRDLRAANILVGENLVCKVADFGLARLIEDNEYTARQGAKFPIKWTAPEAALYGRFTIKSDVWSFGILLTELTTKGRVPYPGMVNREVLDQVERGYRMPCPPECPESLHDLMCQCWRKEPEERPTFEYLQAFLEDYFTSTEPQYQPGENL

[3] = molecular target: Fibroblast growth factor receptor 2 (Homo sapiens) (UniProt P21802); experiment: Inhibition of His-tagged human recombinant FGFR2 (403 to 822 residues) expressed in baculovirus using Fluorescein-Poly GT as substrate at 100 nM
Sequence of Fibroblast growth factor receptor 2 (Homo sapiens) (P21802 22-821 limits assumed): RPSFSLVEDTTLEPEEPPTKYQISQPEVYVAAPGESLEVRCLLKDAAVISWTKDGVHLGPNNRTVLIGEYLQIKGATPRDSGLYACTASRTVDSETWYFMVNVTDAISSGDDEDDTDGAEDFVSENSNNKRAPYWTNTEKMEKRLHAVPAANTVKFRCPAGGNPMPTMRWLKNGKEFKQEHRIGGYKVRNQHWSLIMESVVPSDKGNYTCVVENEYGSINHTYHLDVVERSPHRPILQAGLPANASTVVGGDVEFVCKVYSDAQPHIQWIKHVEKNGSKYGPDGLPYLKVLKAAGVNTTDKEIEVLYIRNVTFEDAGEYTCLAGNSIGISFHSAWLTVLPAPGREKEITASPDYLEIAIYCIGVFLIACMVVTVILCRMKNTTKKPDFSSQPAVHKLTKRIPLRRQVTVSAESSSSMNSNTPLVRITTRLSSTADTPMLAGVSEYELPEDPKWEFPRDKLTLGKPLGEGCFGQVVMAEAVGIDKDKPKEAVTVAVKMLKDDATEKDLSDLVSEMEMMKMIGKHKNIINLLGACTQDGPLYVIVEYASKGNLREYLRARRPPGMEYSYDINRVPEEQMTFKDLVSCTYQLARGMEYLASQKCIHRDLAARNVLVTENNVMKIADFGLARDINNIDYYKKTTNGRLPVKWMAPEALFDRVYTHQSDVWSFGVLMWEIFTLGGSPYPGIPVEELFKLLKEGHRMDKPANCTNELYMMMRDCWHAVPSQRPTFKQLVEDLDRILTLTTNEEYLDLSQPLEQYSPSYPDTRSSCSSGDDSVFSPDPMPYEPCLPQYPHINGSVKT

[4] = Antiangiogenic activity in HRMEC after 72 hrs by MTT assay; type: functional, Homo sapiens
HT-29 = experiment: Antiproliferative activity against human HT-29 cells after 72 hrs by MTT assay; type: functional, cell-based; conditions: HT-29, 72 h
HUVEC = experiment: Antiangiogenic activity in HUVEC after 72 hrs by MTT assay; type: functional, cell-based; conditions: Homo sapiens
[5] = molecular target: Vascular endothelial growth factor receptor 2 (Homo sapiens) (UniProt P35968); experiment: Inhibition of full length His-tagged human recombinant VEGFR2 expressed in baculovirus using Fluorescein-Poly GT as substrate at 100 nM
Sequence of Vascular endothelial growth factor receptor 2 (Homo sapiens) (P35968 whole entry): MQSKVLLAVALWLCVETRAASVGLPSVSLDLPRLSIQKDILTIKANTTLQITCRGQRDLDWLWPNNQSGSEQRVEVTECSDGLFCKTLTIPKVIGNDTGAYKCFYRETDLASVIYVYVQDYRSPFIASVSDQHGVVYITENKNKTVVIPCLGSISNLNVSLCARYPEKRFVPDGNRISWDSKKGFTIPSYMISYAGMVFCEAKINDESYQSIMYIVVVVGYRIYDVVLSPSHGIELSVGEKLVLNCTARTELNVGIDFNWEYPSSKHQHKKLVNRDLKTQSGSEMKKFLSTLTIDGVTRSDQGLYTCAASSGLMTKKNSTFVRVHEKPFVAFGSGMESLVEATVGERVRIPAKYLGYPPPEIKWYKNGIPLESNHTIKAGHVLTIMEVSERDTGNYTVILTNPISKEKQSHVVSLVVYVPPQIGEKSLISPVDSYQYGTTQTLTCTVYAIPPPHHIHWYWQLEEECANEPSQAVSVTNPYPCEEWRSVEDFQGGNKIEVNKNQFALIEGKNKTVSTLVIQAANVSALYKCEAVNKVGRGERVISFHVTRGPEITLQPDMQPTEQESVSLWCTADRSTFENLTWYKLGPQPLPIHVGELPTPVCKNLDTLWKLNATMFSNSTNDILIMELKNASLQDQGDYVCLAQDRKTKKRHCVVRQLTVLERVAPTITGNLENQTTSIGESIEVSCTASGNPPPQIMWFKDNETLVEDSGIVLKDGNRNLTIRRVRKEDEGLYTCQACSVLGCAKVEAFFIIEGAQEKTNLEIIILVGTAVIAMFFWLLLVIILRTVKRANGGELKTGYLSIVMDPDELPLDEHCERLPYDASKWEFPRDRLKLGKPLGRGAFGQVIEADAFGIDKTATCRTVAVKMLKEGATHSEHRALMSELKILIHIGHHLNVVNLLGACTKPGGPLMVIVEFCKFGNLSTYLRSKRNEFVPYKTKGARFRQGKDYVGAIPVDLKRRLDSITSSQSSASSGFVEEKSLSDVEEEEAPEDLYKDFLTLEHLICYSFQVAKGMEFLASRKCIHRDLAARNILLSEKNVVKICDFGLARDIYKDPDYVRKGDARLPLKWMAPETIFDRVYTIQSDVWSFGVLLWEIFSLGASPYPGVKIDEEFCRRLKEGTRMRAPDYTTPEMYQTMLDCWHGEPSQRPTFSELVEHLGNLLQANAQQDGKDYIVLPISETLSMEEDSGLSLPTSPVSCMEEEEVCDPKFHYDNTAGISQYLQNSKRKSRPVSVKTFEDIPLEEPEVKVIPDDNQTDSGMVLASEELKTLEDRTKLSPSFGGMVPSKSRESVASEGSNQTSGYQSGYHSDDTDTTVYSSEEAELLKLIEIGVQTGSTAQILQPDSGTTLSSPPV

[6] = molecular target: Serine/threonine-protein kinase B-raf (Homo sapiens) (UniProt P15056); experiment: Inhibition of full length GST-tagged human recombinant BRAF expressed in baculovirus using Fluorescein-MAP2K1 as substrate at 100 nM
A549 = experiment: Antiproliferative activity against human A549 cells after 72 hrs by MTT assay; type: functional, cell-based; conditions: A549, 72 h
[7] = molecular target: Platelet-derived growth factor receptor alpha (Homo sapiens, UniProt P16234); experiment: Inhibition of full length GST-tagged human recombinant PDGFRalpha expressed in baculovirus using Fluorescein-Poly GT as substrate at 100 nM
Sequence of Platelet-derived growth factor receptor alpha (P16234 whole entry): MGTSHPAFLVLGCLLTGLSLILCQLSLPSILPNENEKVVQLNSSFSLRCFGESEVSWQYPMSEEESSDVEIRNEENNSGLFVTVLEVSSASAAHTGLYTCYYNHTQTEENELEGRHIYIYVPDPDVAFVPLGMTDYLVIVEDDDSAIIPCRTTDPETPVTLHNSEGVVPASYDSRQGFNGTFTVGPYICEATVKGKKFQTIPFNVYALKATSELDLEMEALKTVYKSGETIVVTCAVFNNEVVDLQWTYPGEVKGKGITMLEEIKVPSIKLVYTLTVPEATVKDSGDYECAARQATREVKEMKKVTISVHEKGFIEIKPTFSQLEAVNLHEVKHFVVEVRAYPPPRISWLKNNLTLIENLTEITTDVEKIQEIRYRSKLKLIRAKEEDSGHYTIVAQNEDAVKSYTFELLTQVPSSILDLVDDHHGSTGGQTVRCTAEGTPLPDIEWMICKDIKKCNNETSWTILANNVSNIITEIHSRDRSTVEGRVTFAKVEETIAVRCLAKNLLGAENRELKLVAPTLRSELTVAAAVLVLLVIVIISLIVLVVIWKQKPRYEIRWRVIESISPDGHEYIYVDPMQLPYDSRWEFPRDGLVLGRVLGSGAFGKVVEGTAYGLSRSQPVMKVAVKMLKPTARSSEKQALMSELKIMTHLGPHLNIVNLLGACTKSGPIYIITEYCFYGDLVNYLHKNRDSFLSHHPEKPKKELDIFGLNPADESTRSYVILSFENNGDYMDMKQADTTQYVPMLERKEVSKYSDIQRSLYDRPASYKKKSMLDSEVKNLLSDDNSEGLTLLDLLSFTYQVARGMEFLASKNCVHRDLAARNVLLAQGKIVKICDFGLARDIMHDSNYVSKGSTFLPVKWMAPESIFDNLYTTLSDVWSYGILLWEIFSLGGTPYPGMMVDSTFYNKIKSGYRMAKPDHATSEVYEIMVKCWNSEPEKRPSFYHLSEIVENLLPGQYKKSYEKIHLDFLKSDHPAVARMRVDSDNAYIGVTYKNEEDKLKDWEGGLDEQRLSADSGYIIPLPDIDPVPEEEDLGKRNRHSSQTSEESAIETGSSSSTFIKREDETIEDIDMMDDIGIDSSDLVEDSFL

MDA-MB-231 = experiment: Antiproliferative activity against human MDA-MB-231 cells after 72 hrs by MTT assay; type: functional, cell-based; conditions: MDA-MB-231, 72 h
[8] = Antiproliferative activity against human Caki2 cells after 72 hrs by MTT assay; type: functional, cell-based; conditions: CAKI-2, 72 h
[9] = Antiproliferative activity against human BxPC3 cells after 72 hrs by MTT assay; type: functional, cell-based; conditions: BXPC-3, 72 h
NCI-H1975 = experiment: Antiproliferative activity against human NCI-H1975 cells harboring EGFR L858R/T790M double mutant after 72 hrs by MTT assay; type: functional, cell-based; conditions: NCI-H1975, 72 h
PBMC = experiment: Hematotoxicity in human PHA/IL2-stimulated PBMC; type: cell-based
[10] = Antiproliferative activity against human PC3 cells after 72 hrs by MTT assay; type: functional, cell-based; conditions: PC-3, 72 h

SMILES | EC50 (HepG2) [nM] | inhibition [1] [%] | inhibition [2] [%] | inhibition [3] [%] | EC50 [4] [nM] | EC50 (HT-29) [nM] | EC50 (HUVEC) [nM] | inhibition [5] [%] | inhibition [6] [%] | EC50 (A549) [nM] | inhibition [7] [%] | EC50 (MDA-MB-231) [nM] | EC50 [8] [nM] | EC50 [9] [nM] | EC50 (NCI-H1975) [nM] | EC50 (PBMC) [nM] | EC50 [10] [nM]
CC(=O)c1cc2cc(CCc3cc(NC(=O)c4ccc(CN5CCC(N(C)C)C5)c(C(F)(F)F)c4)ccc3C)cnc2[nH]1 (centres undefined) | 248 | 83 | 97 | 81 | 304 | 303 | 163 | 99 | 60 | 293 | 89 | – | – | – | – | – | –
CNC(=O)c1cc(Oc2ccc(NC(=O)Nc3ccc(Cl)c(C(F)(F)F)c3)cc2)ccn1 [SORAFENIB] | 302 | – | – | – | > 1000 | > 1000 | 718 | – | – | > 1000 | – | > 1000 | > 1000 | > 1000 | > 1000 | – | –
Cc1nc(Nc2ncc(C(=O)Nc3c(C)cccc3Cl)s2)cc(N2CCN(CCO)CC2)n1 [DASATINIB] | – | – | – | – | – | – | – | – | – | – | – | 44 | 55 | 33 | 173 | 1600 | 232
C#Cc1cccc(Nc2ncnc3cc(OCCOC)c(OCCOC)cc23)c1 [ERLOTINIB] | – | – | – | – | > 1000 | > 1000 | – | – | – | > 1000 | – | > 1000 | > 1000 | > 1000 | > 1000 | – | > 1000
CN(C)C/C=C/C(=O)Nc1cc2c(Nc3ccc(F)c(Cl)c3)ncnc2cc1O[C@H]1CCOC1 [AFATINIB] | – | – | – | – | – | – | – | – | – | – | – | > 1000 | – | > 1000 | 116 | – | –
CCN(CC)CCNC(=O)c1c(C)[nH]c(/C=C2\C(=O)Nc3ccc(F)cc32)c1C [SUNITINIB] | – | – | – | – | – | – | – | – | – | – | – | > 1000 | > 1000 | > 1000 | > 1000 | – | > 1000
CNC(=O)c1cc2cc(NCc3cc(NC(=O)c4ccc(CN5CCC(N(C)C)C5)c(C(F)(F)F)c4)ccc3C)cnc2[nH]1 (centres undefined) | 179 | 101 | 99 | 98 | 81 | 227 | 83 | 87 | 93 | 495 | 94 | – | – | – | – | – | –
CNC(=O)c1cc(Oc2ccc(NC(=O)Nc3ccc(Cl)c(C(F)(F)F)c3)c(F)c2)ccn1 [REGORAFENIB] | – | – | – | – | – | > 1000 | – | – | – | > 1000 | – | – | – | – | – | – | –
COC(=O)c1cc2cc(NC(=O)c3cc(NC(=O)c4ccc(CN5CCC(N(C)C)C5)c(C(F)(F)F)c4)ccc3C)cnc2[nH]1 (centres undefined) | 977 | 76 | 100 | 94 | – | – | 631 | 93 | 46 | – | 94 | – | – | – | – | – | –
COC(=O)c1cc2cc(NCc3cc(NC(=O)c4cncc(C)c4)ccc3C)cnc2[nH]1 | 510 | 72 | 89 | 19 | – | – | > 1000 | 89 | 95 | – | 93 | – | – | – | – | – | –
COC(=O)c1cc2cc(NCc3cc(NC(=O)c4cncc(C(F)(F)F)c4)ccc3C)cnc2[nH]1 | 963 | 78 | 101 | 13 | – | – | 390 | 73 | 73 | – | 93 | – | – | – | – | – | –
COC(=O)c1cc2cc(NC(=O)c3cc(NC(=O)c4ccc(CN5CCN(C)CC5)cc4)ccc3C)cnc2[nH]1 | > 1000 | 65 | 94 | 8 | – | – | > 1000 | 97 | 71 | – | 41 | – | – | – | – | – | –
COC(=O)c1cc2cc(NCc3cc(NC(=O)c4ccc5c(c4)OCO5)ccc3C)cnc2[nH]1 | > 1000 | 40 | 68 | 3 | – | – | 298 | 58 | 77 | – | 91 | – | – | – | – | – | –
COC(=O)c1cc2cc(NCc3cc(NC(=O)c4ccc(CN5CCC(N(C)C)C5)c(C(F)(F)F)c4)ccc3C)cnc2[nH]1 (centres undefined) | 673 | 80 | 96 | 75 | – | – | 689 | 96 | 92 | – | 90 | – | – | – | – | – | –
CC(=O)c1cc2cc(NCc3cc(NC(=O)c4ccc(CN5CCC(N(C)C)C5)c(C(F)(F)F)c4)ccc3C)cnc2[nH]1 (centres undefined) | 275 | 94 | 91 | 58 | 179 | 150 | 97 | 71 | 56 | 204 | 73 | – | – | – | – | – | –
